Results published in EP0097439A2, “A crystalline prostaglandin salt” (THE UPJOHN COMPANY, priority 1982, dated 1984).
Where a name gives a salt, the structure may show the parent alone. Read-outs that look alike come from different tables or passages of the source.

Tests used:
[1] = Water content / hygroscopicity of the crystalline solid; format: physicochemical
Description: All solvents used in this example are degassed with nitrogen using a gas dispersion tube for 15 min prior to use. To a stirred solution of 4.82 g of 9-deoxo-16,16-dimethyl-9-methylene-PGE2 in 50 ml of methanol is added a solution of 880 mg of potassium carbonate in 15 ml of water. The reaction mixture is then allowed to stand for 5 min at 25°C and then concentrated under reduced pressure at 35°C. Eight 250 ml portions of anhydrous tetrahydrofuran are added and evaporated to insure complete removal of water. The residue, a pale yellow foam, is dissolved in 15 ml of methanol and added dropwise under a nitrogen atmosphere with vigorous stirring to one liter of diethyl ether. The initial cloudy suspension yields a gum-like residue on the walls of the reaction vessel after about 1 hr. Continued vigorous stirring for 24 hr leads to gradual crystallization and resuspension as a uniform, easily filterable solid. This suspension is then filtered using a medium porosity sintered glass funnel. The solids are washed with 15 ml of fresh diethyl ether at 25°C. After drying for 2 hr in a vacuum desiccator at 25°C, a colorless free-flowing crystalline solid, 5.13 g, is obtained, pure crystalline 9-deoxo-16,16-dimethyl-9-methylene-PGE2 potassium salt. IR absorptions (cm^-1) are observed at 3134, 1652, 1572, 1467, 1392, 1337, 1364, 1344, 1102, 1024, 974, and 883. […]

[2] = Plasma levels of 9-deoxo-16,16-dimethyl-9-methylene-PGE2 by radioimmunoassay after insertion of a suppository; format: in vivo, Rhesus monkeys (Macaca mulatta); details: rhesus monkey, plasma, 30 mg, plasma, read-out: Drug Levels
Source text: A. Midtrimester pregnant female Rhesus monkeys (Macaca mulatta) are used. (The first day of menstrual bleeding is designated Day 1 of the menstrual cycle; the first day a female is placed with a male for breeding is designated Day 1 of pregnancy. Pregnancy is confirmed by abdominal palpation of the uterus.)
Blood samples are collected into heparinized syringes at specified times following insertion of a suppository in pregnant or non- pregnant monkeys. Plasma is extracted and assayed for 9-deoxo-16,16-dimethyl-9-methylene-PGE2 content by radioimmunoassay.
C. Six suppository lots are prepared (4), each containing 9- deoxo-16,16-dimethyl-9-methylene-PGE2 or its crystalline potassium salt (Examples 1 and 2). Two lots are made with Witepsol H15 alone as the suppository base, two with Witepsol HIS wax plus 2% colloidal silicon dioxide (CSD) and two with Witepsol H15 plus 2% CSD plus 10% triacetin. Suppositories are prepared using Witepsol H15 suppository wax. Free acid or potassium salt is dispersed in the hot wax using a homogenizer. Two percent colloidal silicon dioxide (CSD) is mixed in by further homogenization. In the third formulation, triacetin (10%) is added before the CSD and then homogenized for one minute. Suppositories are formed in 800 mg aluminum molds and are stored at 4°C until used.
D. The plasma levels of 9-deoxo-16,16-d1methy1-9-methy1ene-PGE2 in monkeys treated with 6 formulations containing either 9-deoxo-16,16-dimethyl-9-methylene-PGE2 free acid or potassium salt are shown in Tables 1-6. In general, higher blood levels are measured in pregnant Rhesus monkeys than in non-pregnant monkeys.

[3] = Monkey #4, 30 mg Potassium Salt in H15 Suppositories
[4] = Monkey #5, 30 mg Potassium Salt in H15 Suppositories
[5] = Monkey #6 (pregnant animal with uterine recording), 30 mg Potassium Salt in H15 Suppositories
[6] = Monkey #10, 30 mg Potassium Salt in H15 Plus 2% CSD Suppositories
[7] = Monkey #11, 30 mg Potassium Salt in H15 Plus 2% CSD Suppositories
[8] = Monkey #12 (pregnant animal with uterine recording), 30 mg Potassium Salt in H15 Plus 2% CSD Suppositories
[9] = Monkey #16, 30 mg Potassium Salt in H15 Plus 2% CSD + 10% Triacetin Suppositories
[10] = Monkey #17, 30 mg Potassium Salt in H15 Plus 2% CSD + 10% Triacetin Suppositories
[11] = Monkey #18, 30 mg Potassium Salt in H15 Plus 2% CSD + 10% Triacetin Suppositories

Compound: C=C1C[C@@H](O)[C@H](/C=C/[C@@H](O)C(C)(C)CCCC)[C@H]1C/C=C\CCCC(=O)O [Potassium Salt, 9-deoxo-16,16-dimethyl-9-methylene-PGE2 potassium salt]
- Water content ([1]; after 5 days at ambient humidity): 0.16%
- hygroscopicity ([1]; crystalline solid): non-hygroscopic
- concentration at 0.25 h [2, 3]: 128 ng/mL
- concentration at 0.5 h ([2]; Monkey #4, 0.5 Hours, 30 mg Potassium Salt in H15 Suppositories): 3.72 ng/mL
- concentration at 1.5 h [2, 3]: 0.41 ng/mL
- concentration at 2 h [2, 3]: 0.86 ng/mL
- concentration at 3 h [2, 3]: 7.52 ng/mL
- concentration at 4 h [2, 3]: 8.39 ng/mL
- concentration at 6 h [2, 3]: 17.9 ng/mL
- concentration at 24 h [2, 3]: 21.7 ng/mL
- concentration at 0.25 h [2, 4]: 10.9 ng/mL
- concentration at 1 h [2, 4]: 1.42 ng/mL
- concentration at 1.5 h [2, 4]: 5.91 ng/mL
- concentration at 2 h [2, 4]: 11.5 ng/mL
- concentration at 3 h [2, 4]: 14.2 ng/mL
- concentration at 4 h [2, 4]: 22.9 ng/mL
- concentration at 6 h [2, 4]: 25 ng/mL
- concentration at 24 h [2, 4]: 16.2 ng/mL
- concentration at 0.25 h [2, 5]: 76.6 ng/mL
- concentration at 0.5 h ([2]; Monkey #6 (pregnant animal with uterine recording), 0.5 Hours, 30 mg Potassium Salt in H15 Suppositories): 68.4 ng/mL
- concentration at 1 h [2, 5]: 29.6 ng/mL
- concentration at 1.5 h [2, 5]: 77.3 ng/mL
- concentration at 2 h [2, 5]: 28.4 ng/mL
- concentration at 3 h [2, 5]: 41.7 ng/mL
- concentration at 4 h [2, 5]: 42.8 ng/mL
- concentration at 6 h [2, 5]: 20.2 ng/mL
- concentration at 24 h [2, 5]: 7.77 ng/mL
- concentration at 0.25 h [2, 6]: 20.4 ng/mL
- concentration at 1 h [2, 6]: 1.5 ng/mL
- concentration at 1.5 h [2, 6]: 1.7 ng/mL
- concentration at 2 h [2, 6]: 3.57 ng/mL
- concentration at 3 h [2, 6]: 12.4 ng/mL
- concentration at 4 h [2, 6]: 20.7 ng/mL
- concentration at 6 h [2, 6]: 53.8 ng/mL
- concentration at 24 h [2, 6]: 16 ng/mL
- concentration at 0.5 h ([2]; Monkey #10, .5 Hours, 30 mg Potassium Salt in H15 Plus 2% CSD Suppositories): 2.39 ng/mL
- concentration at 0.25 h [2, 7]: 19.8 ng/mL
- concentration at 1 h [2, 7]: 6.61 ng/mL
- concentration at 1.5 h [2, 7]: 8.13 ng/mL
- concentration at 2 h [2, 7]: 9.8 ng/mL
- concentration at 3 h [2, 7]: 9.48 ng/mL
- concentration at 4 h [2, 7]: 18.7 ng/mL
- concentration at 6 h [2, 7]: 28.7 ng/mL
- concentration at 24 h [2, 7]: 23.4 ng/mL
- concentration at 0.5 h ([2]; Monkey #11, .5 Hours, 30 mg Potassium Salt in H15 Plus 2% CSD Suppositories): 14 ng/mL
- concentration at 0.25 h [2, 8]: 104 ng/mL
- concentration at 1 h [2, 8]: 40.9 ng/mL
- concentration at 1.5 h [2, 8]: 91.1 ng/mL
- concentration at 2 h [2, 8]: 66.5 ng/mL
- concentration at 3 h [2, 8]: 51.5 ng/mL
- concentration at 4 h [2, 8]: 36.1 ng/mL
- concentration at 6 h [2, 8]: 22.5 ng/mL
- concentration at 24 h [2, 8]: 6.04 ng/mL
- concentration at 0.5 h ([2]; Monkey #12 (pregnant animal with uterine recording), .5 Hours, 30 mg Potassium Salt in H15 Plus 2% CSD Suppositories): 55.7 ng/mL
- concentration at 0.25 h [2, 9]: 7.45 ng/mL
- concentration at 0.5 h ([2]; Monkey #16, 0.5 Hours, 30 mg Potassium Salt in H15 Plus 2% CSD + 10% Triacetin Suppositories): 7 ng/mL
- concentration at 1 h [2, 9]: 12.6 ng/mL
- concentration at 1.5 h [2, 9]: 19.9 ng/mL
- concentration at 2 h [2, 9]: 40.2 ng/mL
- concentration at 3 h [2, 9]: 45.5 ng/mL
- concentration at 4 h [2, 9]: 31.4 ng/mL
- concentration at 6 h [2, 9]: 34.5 ng/mL
- concentration at 24 h [2, 9]: 14.2 ng/mL
- concentration at 0.25 h [2, 10]: 7.98 ng/mL
- concentration at 0.5 h ([2]; Monkey #17, 0.5 Hours, 30 mg Potassium Salt in H15 Plus 2% CSD + 10% Triacetin Suppositories): 2.15 ng/mL
- concentration at 1 h [2, 10]: 1.27 ng/mL
- concentration at 1.5 h [2, 10]: 1.86 ng/mL
- concentration at 2 h [2, 10]: 1.75 ng/mL
- concentration at 3 h [2, 10]: 20.1 ng/mL
- concentration at 4 h [2, 10]: 3.13 ng/mL
- concentration at 6 h [2, 10]: 6.97 ng/mL
- concentration at 24 h [2, 10]: 21.9 ng/mL
- concentration at 0.25 h [2, 11]: 56.8 ng/mL
- concentration at 0.5 h ([2]; Monkey #18, 0.5 Hours, 30 mg Potassium Salt in H15 Plus 2% CSD + 10% Triacetin Suppositories): 207 ng/mL
- concentration at 1 h [2, 11]: 64.4 ng/mL
- concentration at 1.5 h [2, 11]: 38.3 ng/mL
- concentration at 2 h [2, 11]: 87.2 ng/mL
- concentration at 3 h [2, 11]: 47.8 ng/mL
- concentration at 4 h [2, 11]: 35.5 ng/mL
- concentration at 6 h [2, 11]: 33.9 ng/mL
- concentration at 24 h [2, 11]: 8.31 ng/mL
